Assay results taken from patent publication US20070160725A1, “Use of extracts and compounds of allium-genus plants as preservatives in the food and agri-food industries” (MOUSALA, S., L., priority 2004, published 2007).

Assays:
[1] = test system: Aspergillus terreus, isolated from the environment of the cheese maturation chamber; experiment: agar diffusion, inhibition halo; format: cell-based
Protocol: (§1) In order to evaluate the antimicrobial activity the agar diffusion technique with cellulose discs of 6 mm in diameter impregnated with the different active ingredient testing doses was used.
(§2) Antifungal capacity was assessed against suspensions of […], harvested from pure cultures of the selected molds and against suspensions of 10^7 cells/ml for the case of yeasts. The culture medium used was the 2% Sabouraud-glucose medium (Merck).
(§3) After incubating the culture dishes inoculated with the different organisms at the corresponding temperatures, the microbial inhibition halos that appeared were measured, and said measurement includes the 6 mm diameter of the cellulose discs.

[2] = test system: Aspergillus niger, CECT 2700; experiment: agar diffusion, inhibition halo; format: cell-based
Protocol: as §1, §2, §3

[3] = test system: Penicillium sp, isolated from cheese; experiment: agar diffusion, inhibition halo; format: cell-based
Protocol: as §1, §2, §3

[4] = test system: Candida krusei, isolated from cheese; experiment: agar diffusion, inhibition halo; format: cell-based
Protocol: as §1, §2, §3

[5] = test system: Saccharomyces cerevisiae, CECT 1324; experiment: agar diffusion, inhibition halo; format: cell-based
Protocol: as §1, §2, §3

[6] = test system: Candida parapsilosis, isolated from cheese; experiment: agar diffusion, inhibition halo; format: cell-based
Protocol: as §1, §2, §3

[7] = test system: Candida magnoliae, isolated from cheese; experiment: agar diffusion, inhibition halo; format: cell-based
Protocol: as §1, §2, §3

[8] = test system: Escherichia coli; experiment: microbiological quality of treated hamburgers and fresh sausage: Escherichia coli count
Protocol: The tests were conducted on meat products such as hamburgers and fresh sausage at different doses, with and without the usual preservatives (sulfites).
Each sample is prepared in quintuplicate and microbiological quality control over time is conducted, a triplicate of each sample being performed.
The positive Brila Broth tubes obtained in the coliform study are used according to the following protocol:
All the tubes having gas production are subcultured again with an inoculation loop in tubes containing 10 mL of Brila Broth (with a Durham tube), being incubated at 44.5° C. for 24-48 hours.
Once the incubation has elapsed the existence of Escherichia coli is assumed in any tube with growth and with gas formation under the previously discussed conditions.
Eosine Methylene Blue (Merck EMB) was used as a selective confirmation medium, isolating on dishes containing EMB from all the positive tubes. The occurrence of colonies measuring 2-3 mm in diameter (planar or slightly concave), with dark almost black centers occupying ¾ of the colony which, with reflected light, sometimes show a greenish metallic glow, which are most likely Escherichia coli, the confirmation of which is done by means of the indole biochemistry test.
When positive growth (gas) in Brila Broth at 44.5° C., indole production and characteristic growth on EMB agar coincide, the reading is done in the MPN table and the data is extrapolated.
The result is expressed as the number of
Escherichia coli per gram of sample.
Two different raw meat products (sausages and hamburgers) treated with different allicin doses are prepared. • The used testing doses were: 25, 50 and 100 ppm.
Five samples of each product (hamburger and sausage) are prepared, each one of them being analyzed in triplicate.
The microbiological parameters analyzed were as follows: • Total mesophilic aerobes • Coliforms • Escherichia coli • Salmonella (presence/absence in 25 g) • Said parameters were analyzed at different times: • 0 days • 4 days • 7 days • The sample references resulted as follows: […]

`C=CCS[S+]([O-])CC=C` (centres unmarked) [Allicin, allyl allylthiosulfinate] was tested, and the inhibition halo diameter ([1]; 25 ppm) was 12 mm, the inhibition halo diameter ([1]; 50 ppm) was 22 mm and the inhibition halo diameter ([1]; 100 ppm) was 25 mm. The inhibition halo diameter ([2]; 25 ppm) was 10 mm, the inhibition halo diameter ([2]; 50 ppm) was 13 mm and the inhibition halo diameter ([2]; 100 ppm) was 19 mm. The inhibition halo diameter ([3]; 25 ppm) was 22 mm, the inhibition halo diameter ([3]; 50 ppm) was 26 mm and the inhibition halo diameter ([3]; 100 ppm) was 34 mm. The inhibition halo diameter ([4]; 25 ppm) was 14 mm, the inhibition halo diameter ([4]; 50 ppm) was 18 mm and the inhibition halo diameter ([4]; 100 ppm) was 29 mm. The inhibition halo diameter ([5]; 25 ppm) was 28 mm, the inhibition halo diameter ([5]; 50 ppm) was 32 mm and the inhibition halo diameter ([5]; 100 ppm) was 44 mm. It also gave an inhibition halo diameter ([6]; 50 ppm) of 14 mm, an inhibition halo diameter ([6]; 100 ppm) of 17 mm and an inhibition halo diameter ([7]; 25 ppm) of 22 mm. It also gave an inhibition halo diameter ([7]; 50 ppm) of 30 mm, an inhibition halo diameter ([7]; 100 ppm) of 38 mm and an Escherichia coli ([8]; hamburger, 25 ppm of allicin (H-1), t = 0 days) of 23 cfu/g. The Escherichia coli ([8]; hamburger, 25 ppm of allicin (H-1), t = 4 days) was 150 cfu/g, the Escherichia coli ([8]; hamburger, 50 ppm of allicin (H-2), t = 0 days) was 23 cfu/g and the Escherichia coli ([8]; hamburger, 50 ppm of allicin (H-2), t = 4 days) was 150 cfu/g. It also gave an Escherichia coli ([8]; hamburger, 100 ppm of allicin (H-3), t = 0 days) of 23 cfu/g, an Escherichia coli ([8]; hamburger, 100 ppm of allicin (H-3), t = 4 days) of 43 cfu/g and an Escherichia coli ([8]; sausage, 25 ppm of allicin (S-1), t = 0 days) of less than 3 cfu/g. The Escherichia coli ([8]; sausage, 25 ppm of allicin (S-1), t = 4 days) was 4 cfu/g, the Escherichia coli ([8]; sausage, 50 ppm of allicin (S-2), t = 0 days) was less than 3 cfu/g and the Escherichia coli ([8]; sausage, 50 ppm of allicin (S-2), t = 4 days) was 4 cfu/g. For the same compound, the Escherichia coli ([8]; sausage, 100 ppm of allicin (S-3), t = 0 days) was less than 3 cfu/g and the Escherichia coli ([8]; sausage, 100 ppm of allicin (S-3), t = 4 days) was less than 3 cfu/g.
